According to patent US20110172147A1, “NEUROPEPTIDE-2 RECEPTOR (Y-2R) AGONISTS” (priority 2009, published 2011):

What was measured:
Format in all cases: cell-based
Y1R = biological target: T1, Y1R (Homo sapiens, UniProt P25929); experiment: CaFlux Assay (FLIPR), Y1R
T1 sequence (P25929 1-384): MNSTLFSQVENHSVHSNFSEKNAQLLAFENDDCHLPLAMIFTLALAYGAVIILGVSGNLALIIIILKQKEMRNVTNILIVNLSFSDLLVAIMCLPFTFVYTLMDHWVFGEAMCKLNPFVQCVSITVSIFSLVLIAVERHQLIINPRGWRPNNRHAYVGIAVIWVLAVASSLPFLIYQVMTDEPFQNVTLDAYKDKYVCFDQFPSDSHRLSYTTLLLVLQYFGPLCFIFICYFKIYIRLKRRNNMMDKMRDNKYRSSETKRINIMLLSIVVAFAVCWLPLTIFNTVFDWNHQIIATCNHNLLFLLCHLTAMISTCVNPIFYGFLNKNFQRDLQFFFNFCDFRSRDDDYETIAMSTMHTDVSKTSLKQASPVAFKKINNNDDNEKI

Y4R = Y4R (Homo sapiens, UniProt P50391); experiment: CaFlux Assay (FLIPR), Y4R
Y5R = biological target: T2, Y5R (Homo sapiens, UniProt Q15761); experiment: CaFlux Assay (FLIPR), Y5R
T2 sequence (Q15761 1-445): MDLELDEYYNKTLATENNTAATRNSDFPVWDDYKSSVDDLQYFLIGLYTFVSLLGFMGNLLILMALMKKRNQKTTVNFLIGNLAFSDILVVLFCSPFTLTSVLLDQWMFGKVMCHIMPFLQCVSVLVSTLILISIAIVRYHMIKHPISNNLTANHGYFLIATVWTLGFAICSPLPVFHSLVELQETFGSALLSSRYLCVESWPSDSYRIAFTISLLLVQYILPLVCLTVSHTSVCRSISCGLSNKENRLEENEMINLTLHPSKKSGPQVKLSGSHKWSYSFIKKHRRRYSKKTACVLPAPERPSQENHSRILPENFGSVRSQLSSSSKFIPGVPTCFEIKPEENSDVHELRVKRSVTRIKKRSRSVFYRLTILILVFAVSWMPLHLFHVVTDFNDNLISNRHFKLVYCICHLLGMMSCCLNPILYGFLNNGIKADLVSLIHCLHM

hNPY2R [1] = biological target: T3, hNPY2R (Homo sapiens, UniProt P49146); experiment: cAMP Agonist Assay, HEK293/hNPY2R; parameters: expressed in transfected cells; host or cells: HEK293/hNPY2R (G418 selection)
T3 sequence (P49146 1-381): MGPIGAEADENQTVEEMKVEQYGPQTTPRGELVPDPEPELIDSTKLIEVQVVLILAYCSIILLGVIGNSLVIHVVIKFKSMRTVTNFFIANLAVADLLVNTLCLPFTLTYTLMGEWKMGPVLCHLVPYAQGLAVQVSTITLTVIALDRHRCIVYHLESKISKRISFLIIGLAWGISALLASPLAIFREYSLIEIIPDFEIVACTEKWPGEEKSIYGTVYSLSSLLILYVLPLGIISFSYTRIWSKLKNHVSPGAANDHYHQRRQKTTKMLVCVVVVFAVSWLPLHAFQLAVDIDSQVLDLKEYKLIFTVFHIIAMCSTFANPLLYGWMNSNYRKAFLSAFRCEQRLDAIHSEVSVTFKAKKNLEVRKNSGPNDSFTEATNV
Outline: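 Intracellular cAMP quantified by luminescent competitive ELISA after a 30 min room-temperature treatment of overnight-plated HEK293/hNPY2R cells with compound in medium containing 5 μM forskolin, 0.5 mM IBMX and 1.1% DMSO; four replicates per concentration.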

hNPY2R [2] = biological target: T3, hNPY2R; experiment: CaFlux Assay (FLIPR), Y2R; parameters: expressed in transfected cells; host or cells: HEK-293 stably transfected with G protein chimera Gαqi9
Outline: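 Gαqi9-chimera HEK-293 stable lines; Calcium-3 dye load 1 h, 37 °C (HBSS, 20 mM HEPES, 5 mM probenecid); compound in HBSS/0.05% BSA/1% DMSO; FLIPR read every 1.5 s for 100 s; peak minus pre-addition baseline, % of max positive-control response.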

Y4R, sequence (P50391 whole entry): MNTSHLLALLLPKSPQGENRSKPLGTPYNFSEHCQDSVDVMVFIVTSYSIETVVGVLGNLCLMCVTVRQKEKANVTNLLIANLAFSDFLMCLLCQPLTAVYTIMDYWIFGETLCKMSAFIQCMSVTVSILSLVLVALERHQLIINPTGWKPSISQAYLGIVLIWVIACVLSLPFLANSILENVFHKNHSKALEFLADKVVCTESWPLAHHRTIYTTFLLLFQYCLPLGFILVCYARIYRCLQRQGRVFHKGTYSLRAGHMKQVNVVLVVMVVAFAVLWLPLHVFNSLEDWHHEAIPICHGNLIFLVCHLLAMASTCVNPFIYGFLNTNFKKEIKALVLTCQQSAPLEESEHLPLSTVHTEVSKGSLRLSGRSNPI

Row | Structure (SMILES) | EC50 (Y1R) | EC50 (Y4R) | EC50 (Y5R) | EC50 (hNPY2R [1]) | EC50 (hNPY2R [2]) | Y5R FLIPR agonist character (partial agonist mark) (Y5R)
1 | CCCCCCCCCCCCCCCCCCCC(=O)N[C@@H](CCC(=O)N[C@@H](CCC(=O)NCCCC[C@H](NC(=O)[C@@H](NC(=O)CCOCCOCCOCCOCCOCCOCCOCCOC)[C@@H](C)CC)C(=O)N1CCN(c2ccc3ncn(CC(=O)N[C@@H](CCCNC(=N)N)C(=O)N[C@@H](Cc4c[nH]cn4)C(=O)N[C@@H](Cc4ccc(O)cc4)C(=O)N[C@@H](CC(C)C)C(=O)N[C@@H](CC(N)=O)C(=O)N[C@@H](Cc4c[nH]c5ccccc45)C(=O)N[C@H](C(=O)N[C@H](C(=O)N[C@@H](CCCNC(=N)N)C(=O)N[C@@H](CCC(N)=O)C(=O)N(C)[C@@H](CCCNC(=N)N)C(=O)N[C@@H](Cc4ccc(O)cc4)C(N)=O)[C@@H](C)O)C(C)C)c(=O)c3c2)CC1)C(=O)O)C(=O)O [Example 23] | > 9000 nM | > 9000 nM | 2210 nM | 0.05 nM | 0.295 nM | 
2 | CCCCCCCCCCCCCCCCCCCC(=O)N[C@@H](CCC(=O)O)C(=O)N[C@@H](CCC(=O)O)C(=O)N[C@H](C(=O)N[C@@H](CCCCNC(=O)CCOCCOCCOCCOCCOCCOCCOCCOCCOCCOCCOCCOC)C(=O)N1CCN(c2ccc3ncn(CC(=O)N[C@@H](CCCNC(N)=O)C(=O)N[C@@H](Cc4c[nH]cn4)C(=O)N[C@@H](Cc4ccc(O)cc4)C(=O)N[C@@H](CC(C)C)C(=O)N[C@@H](CC(N)=O)C(=O)N[C@@H](Cc4c[nH]c5ccccc45)C(=O)N[C@H](C(=O)N[C@H](C(=O)N[C@@H](CCCNC(=N)N)C(=O)N[C@@H](CCC(N)=O)C(=O)N(C)[C@@H](CCCNC(=N)N)C(=O)N[C@@H](Cc4ccc(O)cc4)C(N)=O)[C@@H](C)O)C(C)C)c(=O)c3c2)CC1)[C@@H](C)CC [Example 45] | > 6000 nM | > 6000 nM | > 6000 nM | 0.3 nM | 0.158 nM | 
3 | CCCCCCCCCCCCCCCC(=O)NCCOCCNC(=O)CCC(=O)NCCCC[C@H](NC(=O)[C@@H](NC(=O)CCOCCOCCOCCOCCOCCOCCOCCOCCOCCOCCOCCOCCOCCOCCOCCOC)[C@@H](C)CC)C(=O)N1CCN(c2ccc3ncn(CC(=O)N[C@@H](CCCNC(=N)N)C(=O)N[C@@H](Cc4c[nH]cn4)C(=O)N[C@@H](Cc4ccc(O)cc4)C(=O)N[C@@H](CC(C)C)C(=O)N[C@@H](CC(N)=O)C(=O)N[C@@H](Cc4c[nH]c5ccccc45)C(=O)N[C@H](C(=O)N[C@H](C(=O)N[C@@H](CCCNC(=N)N)C(=O)N[C@@H](CCC(N)=O)C(=O)N(C)[C@@H](CCCNC(=N)N)C(=O)N[C@@H](Cc4ccc(O)cc4)C(N)=O)[C@@H](C)O)C(C)C)c(=O)c3c2)CC1 [Example 14] | > 5000 nM | > 5000 nM | 370 nM | 0.08 nM | 0.032 nM | P.A
4 | CCCCCCCCCCCCCCCC(=O)NCCCCCC(=O)NCCCC[C@H](NC(=O)[C@@H](NC(=O)CCOCCOCCOCCOCCOCCOCCOCCOC)[C@@H](C)CC)C(=O)N1CCN(c2ccc3ncn(CC(=O)N[C@@H](CCCNC(=N)N)C(=O)N[C@@H](Cc4c[nH]cn4)C(=O)N[C@@H](Cc4ccc(O)cc4)C(=O)N[C@@H](CC(C)C)C(=O)N[C@@H](CC(N)=O)C(=O)N[C@@H](Cc4c[nH]c5ccccc45)C(=O)N[C@H](C(=O)N[C@H](C(=O)N[C@@H](CCCNC(=N)N)C(=O)N[C@@H](CCC(N)=O)C(=O)N(C)[C@@H](CCCNC(=N)N)C(=O)N[C@@H](Cc4ccc(O)cc4)C(N)=O)[C@@H](C)O)C(C)C)c(=O)c3c2)CC1 [Example 8] | > 5000 nM | > 5000 nM | 1760 nM | 0.17 nM | 0.033 nM | 
5 | CCCCCCCCCCCCCCCCCCCC(=O)N[C@@H](CCC(=O)O)C(=O)N[C@@H](CCC(=O)O)C(=O)N[C@H](C(=O)N[C@@H](CCCCNC(=O)CCOCCOCCOCCOCCOCCOCCOCCOCCOCCOCCOCCOCCOCCOCCOCCOCCOCCOCCOCCOCCOCCOCCOCCOC)C(=O)N1CCN(c2ccc3ncn(CC(=O)N[C@@H](CCCNC(N)=O)C(=O)N[C@@H](Cc4c[nH]cn4)C(=O)N[C@@H](Cc4ccc(O)cc4)C(=O)N[C@@H](CC(C)C)C(=O)N[C@@H](CC(N)=O)C(=O)N[C@@H](Cc4c[nH]c5ccccc45)C(=O)N[C@H](C(=O)N[C@H](C(=O)N[C@@H](CCCNC(=N)N)C(=O)N[C@@H](CCC(N)=O)C(=O)N(C)[C@@H](CCCNC(=N)N)C(=O)N[C@@H](Cc4ccc(O)cc4)C(N)=O)[C@@H](C)O)C(C)C)c(=O)c3c2)CC1)[C@@H](C)CC [Example 49] | > 9000 nM | > 9000 nM | 518 nM | 0.25 nM | 0.098 nM | P.A
6 | CCCCCCCCCCCCCCCC(=O)NCCCCCC(=O)NCCCC[C@H](NC(=O)[C@@H](NC(=O)COCCOCCOCCOCCOCCOC)[C@@H](C)CC)C(=O)N1CCN(c2ccc3ncn(CC(=O)N[C@@H](CCCNC(=N)N)C(=O)N[C@@H](Cc4c[nH]cn4)C(=O)N[C@@H](Cc4ccc(O)cc4)C(=O)N[C@@H](CC(C)C)C(=O)N[C@@H](CC(N)=O)C(=O)N[C@@H](Cc4c[nH]c5ccccc45)C(=O)N[C@H](C(=O)N[C@H](C(=O)N[C@@H](CCCNC(=N)N)C(=O)N[C@@H](CCC(N)=O)C(=O)N(C)[C@@H](CCCNC(=N)N)C(=O)N[C@@H](Cc4ccc(O)cc4)C(N)=O)[C@@H](C)O)C(C)C)c(=O)c3c2)CC1 [Example 7] | > 5000 nM | > 5000 nM | 1130 nM | 0.16 nM | 0.044 nM | 
7 | CC[C@H](C)[C@H](NC(=O)CCCCCNC(=O)CCOCCOCCOCCOCCOCCOCCOCCOCCOCCOCCOCCOC)C(=O)N[C@@H](CCCCN)C(=O)N1CCN(c2ccc3ncn(CC(=O)N[C@@H](CCCNC(=N)N)C(=O)N[C@@H](Cc4c[nH]cn4)C(=O)N[C@@H](Cc4ccc(O)cc4)C(=O)N[C@@H](CC(C)C)C(=O)N[C@@H](CC(N)=O)C(=O)N[C@@H](Cc4c[nH]c5ccccc45)C(=O)N[C@H](C(=O)N[C@H](C(=O)N[C@@H](CCCNC(=N)N)C(=O)N[C@@H](CCC(N)=O)C(=O)N(C)[C@@H](CCCNC(=N)N)C(=O)N[C@@H](Cc4ccc(O)cc4)C(N)=O)[C@@H](C)O)C(C)C)c(=O)c3c2)CC1 [Example 18] | > 6000 nM | > 6000 nM | > 6000 nM | 0.9 nM | 0.357 nM | 
8 | CCCCCCCCCCCCCCCCCCCC(=O)N[C@@H](CCC(=O)N[C@@H](CCC(=O)N[C@H](C(=O)N[C@@H](CCCCNC(=O)CCOCCOCCOCCOCCOCCOCCOCCOCCOCCOCCOCCOC)C(=O)N1CCN(c2ccc3ncn(CC(=O)N[C@@H](CCCNC(=N)N)C(=O)N[C@@H](Cc4c[nH]cn4)C(=O)N[C@@H](Cc4ccc(O)cc4)C(=O)N[C@@H](CC(C)C)C(=O)N[C@@H](CC(N)=O)C(=O)N[C@@H](Cc4c[nH]c5ccccc45)C(=O)N[C@H](C(=O)N[C@H](C(=O)N[C@@H](CCCNC(=N)N)C(=O)N[C@@H](CCC(N)=O)C(=O)N(C)[C@@H](CCCNC(=N)N)C(=O)N[C@@H](Cc4ccc(O)cc4)C(N)=O)[C@@H](C)O)C(C)C)c(=O)c3c2)CC1)[C@@H](C)CC)C(=O)O)C(=O)O [Example 58] | > 9000 nM | > 9000 nM | 4180 nM | 0.21 nM | 0.114 nM | 
